Experimental data as given in patent US6479466B1, “Compositions for treating viral infections, and methods therefor” (University of Maryland, priority 1999, dated 2002).

Columns and labels:
HIV-1SF162 = test: p24 antigen production in monocyte-derived macrophages infected with HIV-1SF162; assay type: cell-based; conditions: for virus production after drug removal on day 20: 10 μM ddI with or without 10 μM RV, 14 further days
Procedure: MDMs were prepared as described infra, and infected with the SF162 strain of HIV-1 obtained from Dr. Levy at the National Institutes of Health AIDS Research and Reference Reagent Program (Rockville, Md.). Briefly, 25×10^6 freshly isolated PBMCs were cultured for 5 days in T-25 flasks (Coming Costar, Cambridge, Mass.) containing culture medium supplemented with 20% FBS and 10% AB human serum (Gemini Bioproducts, Inc., Calabasas, Calif.). On day 5, non-adherent cells were removed by washing five times with warm RPMI/10%FBS medium. Adherent cells in representative flasks were counted by trypan blue exclusion. By morphology and cytochemical staining for nonspecific esterase (Sigma), more than 97% of cells were macrophages. HIV infection was carried out by adding virus to the flask at a multiplicity of infection of 2000 TCID50/10^6 adherent cells and incubating for 3 hours. Flasks were then washed 3 times with warm RPMI/10%FBS medium and cultured in RPMI containing 20% FBS plus drugs. Every 3 days culture supernatants were collected and fresh medium containing drugs was added to each flask. Virus replication was assayed weekly for p^24 antigen production as described in Example 1 in the supernatant. Cultures were maintained for 3 weeks.
For the present example, cultures were maintained in the presence of 10 μM RV and varying concentrations of ddI. The amount of p24 antigen produced in the supernatant was measured on days 7 and 16 after infection. […] However, a 10-fold or greater potentiation of ddI-antiviral activity was observed when the nucleoside analogue was combined with 10 μM RV.
MDMs derived from 2 seronegative donors were infected with the SF 162 strain of HIV-1 and cultured in the presence of 10 μM ddI, a plasma level attainable in treated individuals. The anti-HIV effect of this concentration of ddI was investigated in the presence or absence of 10 μM RV. DdI alone (10 μM) inhibited viral replication by more than 90% in both donors on day 7 after infection. […] The strong antiviral activity achieved by RV plus ddI on day 16 was further analyzed by removing the drugs from the culture. The drugs were then removed on day 20 and the macrophages maintained in culture for an additional 14 days. In donor #1 MDMs, a virus rebound followed drug removal in the cultures that had been exposed to ddI alone.

HTLV-IIIB = test: p24 antigen in infected resting T-lymphocytes exposed to drugs for 6 days before PHA activation; assay type: cell-based, HIV-1
Procedure: The effect of RV and nucleoside analogues in infected resting T-lymphocytes was evaluated in the present example. Purified resting cells were used. Absence of activated lymphocytes in the preparation was determined by incubation of the cells in the presence of a monoclonal antibody directed against the low affinity IL-2 receptor CD25 (Pharmingen, San Diego, Calif.), and subsequent analysis by flow cytometry. […] Cells were infected with HTLV-IIIB at a multiplicity of infection of 10^4 TCID50/10^6 cells for 3 hours. A high multiplicity of infection (m.o.i.) was used because of a reported short half life of HIV-1 unintegrated DNA in infected resting lymphocytes. Infected cells were washed 3 times with PBS to remove virus excess and resuspended in 10% FBS RPMI medium supplemented with drugs. To ensure that any antiviral activity exerted by the drugs occurred during the resting state, drugs were removed six days after infection by washing with PBS 3 times, and cells were activated by culturing in the presence of PHA for 2 days. Cells were then cultured in IL-2 medium without drugs, and supernatants were monitored for the presence of p24 antigen. Cultures were maintained for 20 days.
Purified resting T-lymphocytes from a seronegative donor were infected with HTLV-IIIB at the high multiplicity of infection and cultured in the presence of 5 or 10 μM RV plus ddI (0, 0.25, 0.5 μM), ddC (0, 0.1 μM) or AZT (0, 4 μM) for 6 days. Concentrations used for ddC and AZT correspond to the highest, nontoxic concentration attainable in plasma of treated individuals. […] On day 6 after infection, drugs were washed away and cells were activated with PHA. The extent of viral replication was evaluated on day 6 (prior to PHA activation) and days 14 and 20 after infection. On day 6 very low amounts of p24 antigen could be detected under every condition tested, likely representing residual virus from the infecting inoculum. […] No toxicity was found by the MTT assay in uninfected culture controls treated with 5 μM RV and 0.5 μM ddI for 20 days under the same conditions.

SMILES | anti-HIV effect (HIV-1SF162; RV 10 μM in the absence of ddI, 2 donors) | virus production on days 14 and 20 following PHA activation (HTLV-IIIB; RV alone (5 or 10 μM)) | inhibition at 10 µM (HIV-1SF162; Human immunodeficiency virus 1, Macrophage, 168 h, ddI alone 10 μM, both donors, day 7, read-out: inhibition of viral replication) [%] | virus production after drug removal on day 20 (HIV-1SF162; donor #1 MDMs) | virus production after drug removal on day 20 (HIV-1SF162; donor #2 MDMs) | virus production (HTLV-IIIB; ddI 1 μM, previous studies under these conditions) | viral replication after PHA activation (HTLV-IIIB; ddI by itself (0.25, 0.5 μM))
Oc1ccc(/C=C/c2cc(O)cc(O)c2)cc1 [RV, trans-3, 4′, 5-trihydroxystilbene] | only a modest anti-HIV effect | considerable virus production | – | – | – | – | –
OC[C@@H]1CC[C@H](n2cnc3c(O)ncnc32)O1 [ddI, 2′,3′-dideoxyinosine] | – | – | > 90 | virus rebound | continued releasing virus | completely suppress virus production | did not suppress viral replication
